{"source": "paper PMC3156789", "about": "(Biochemistry, 2011)", "key": {"CHK-His6": {"molecular_target": "T1, CHK-His6 (Rattus norvegicus, UniProt P41243)", "T1 sequence (P41243 1-467)": "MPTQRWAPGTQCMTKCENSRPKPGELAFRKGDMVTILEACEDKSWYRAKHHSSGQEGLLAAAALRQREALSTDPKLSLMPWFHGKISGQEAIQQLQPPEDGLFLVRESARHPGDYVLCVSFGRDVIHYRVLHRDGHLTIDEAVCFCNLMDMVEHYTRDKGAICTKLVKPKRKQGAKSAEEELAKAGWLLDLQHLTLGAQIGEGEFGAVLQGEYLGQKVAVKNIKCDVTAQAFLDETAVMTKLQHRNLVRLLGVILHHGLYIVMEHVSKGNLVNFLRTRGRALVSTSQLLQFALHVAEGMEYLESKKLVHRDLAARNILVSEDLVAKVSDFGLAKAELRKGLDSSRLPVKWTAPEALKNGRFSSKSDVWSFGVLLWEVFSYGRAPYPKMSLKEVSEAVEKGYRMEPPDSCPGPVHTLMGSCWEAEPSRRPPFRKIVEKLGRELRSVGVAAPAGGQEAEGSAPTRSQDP", "assay": "Kinetic analysis of phosphorylation of peptide substrates by CHK-His6", "assay_type": "biochemical"}, "CHK [1]": {"test_system": "CHK", "assay": "Phosphorylation of α- and β-synucleins by CHK", "assay_type": "biochemical", "conditions": "for phosphate incorporated by CHK: reaction time 120 min, synuclein 0.56 μM, CHK 0.04 μM"}, "transgenic mice": {"test_system": "transgenic mice", "conditions": "mouse, in vivo; cited from earlier work"}, "CHK [2]": {"test_system": "CHK", "assay": "CHK phosphorylation of Flag-tagged β-synuclein in transfected HEK293T cells", "assay_type": "cell-based", "conditions": "HEK293T co-transfected with CHK; pervanadate-treated; Western blot"}, "CHK [3]": {"test_system": "CHK", "assay": "CHK phosphorylation of peptides derived from α- and β-synucleins", "assay_type": "biochemical", "conditions": "30 °C; for reduction in CHK phosphorylation rate: vs β-syn(112–134), Fig. 2B, P81 filter assay, [γ-^32P]ATP"}, "[4]": {"assay": "Circular dichroism analysis of secondary structure", "assay_type": "physicochemical", "conditions": "aqueous solution; SFig. 6"}, "CHK [5]": {"test_system": "CHK", "assay_type": "biochemical", "conditions": "higher than that of hsp90 (SFig. 4B)"}, "[6]": {"conditions": "CHK-His6 0.2 μM, substrate peptides 0–400 μM"}, "[7]": {"conditions": "CHK-His6 0.2 μM, substrate peptides 0–400 μM, Lineweaver-Burk plots"}, "[8]": {"conditions": "vs β-syn(112–134) and SFK-C-terminal peptide"}}, "data": [{"substance": "KKK–GESFEAQDEGIYWNVGPEA [[D9A]CHK-optimal peptide]", "values": [{"measurement": "kcat/KM", "setting": "CHK-His6; [6]", "value": "111×10^−4 μM^−1S^−1"}, {"measurement": "kcat", "setting": "CHK-His6; [7]", "value": "1.27 ± 0.06", "unit": "S^−1"}, {"measurement": "effect of D9A substitution on KM", "setting": "CHK-His6; vs CHK-optimal peptide", "value": "small increase in KM"}, {"measurement": "effect of D9A substitution on kcat", "setting": "CHK-His6; vs CHK-optimal peptide", "value": "slight reduction of kcat"}]}, {"substance": "α-synuclein", "values": [{"measurement": "phosphate incorporated by CHK", "setting": "CHK [1]", "value": 0.024, "unit": "pmol"}, {"measurement": "CHK substrate quality in comparison", "setting": "CHK [1]; α-synuclein vs β-synuclein", "value": "much poorer substrate of CHK compared to β-synuclein"}]}, {"substance": "[P123H] β-synuclein: β-synuclein mutant, proline to histidine substitution at position 123", "values": [{"measurement": "phenotype of transgenic mice overexpressing the mutant", "setting": "transgenic mice", "value": "progressive neurodegeneration"}]}, {"substance": "Flag-[Y127F]β-synuclein: [Y127F]β-synuclein with the Flag tag attached at the N-terminus", "values": [{"measurement": "effect of Y127F on CHK-induced phosphorylation in cells", "setting": "CHK [2]", "value": "reduced the level of CHK-induced phosphorylation"}]}, {"substance": "KKKK-MEPEGESYEDPPQEEYQEYEPEA [β-syn(112–134)]", "values": [{"measurement": "CHK phosphorylation efficiency relative to α-syn peptide", "setting": "CHK [3]; higher than α-syn(117–140) peptide, CHK 0.11 μM, peptide 20 μM, time course (Fig. 3B)", "value": "~ 10 fold"}, {"measurement": "kcat/KM", "setting": "CHK-His6; [6]", "value": "6.7×10^−4 μM^−1S^−1"}, {"measurement": "kcat", "setting": "CHK-His6; [7]", "value": "0.17 ± 0.01", "unit": "S^−1"}, {"measurement": "secondary structure by CD", "setting": "[4]", "value": "random coil conformation"}]}, {"substance": "[Y127F] β-syn(112–134): Y127 is replaced by phenylalanine", "values": [{"measurement": "reduction in CHK phosphorylation rate", "setting": "CHK [3]", "value": 84, "unit": "%"}]}, {"substance": "[Y119F, Y130F]β-syn(112–134): contains Y127 as the only tyrosine", "values": [{"measurement": "reduction in CHK phosphorylation rate", "setting": "CHK [3]", "value": 30, "unit": "%"}]}, {"substance": "KKK–GESFEDQDEGIYWNVGPEA [CHK-optimal peptide]", "values": [{"measurement": "kcat/KM", "setting": "CHK-His6; [6]", "value": "140×10^−4 μM^−1S^−1"}, {"measurement": "kcat", "setting": "CHK-His6; [7]", "value": "1.45 ± 0.05", "unit": "S^−1"}, {"measurement": "kcat", "setting": "CHK-His6; CHK-optimal peptide", "value": 1.45, "unit": "s⁻¹"}, {"measurement": "kcat relative to β-syn(112–134) and SFK-C-terminal peptide", "setting": "CHK-His6; [8]", "value": "approximately ten-fold higher"}, {"measurement": "phosphorylation efficiency in comparison", "setting": "CHK-His6; [8]", "value": "phosphorylated with an efficiency higher than those of β-syn(112–134) and SFK-C-terminal peptide"}]}, {"substance": "KKDPEERPTFEYLQSFTATEPQYQPGENL [SFK C-terminal Peptide, reference compound]", "values": [{"measurement": "kcat/KM", "setting": "CHK-His6; [6]", "value": "5.1×10^−4 μM^−1S^−1"}, {"measurement": "kcat", "setting": "CHK-His6; [7]", "value": "0.13 ± 0.003", "unit": "S^−1"}, {"measurement": "secondary structure by CD", "setting": "[4]", "value": "random coil conformation"}]}, {"substance": "β-synuclein: recombinant β-synuclein (GST-β-synuclein in Fig. 5); potential CHK substrate in rat brain cytosol", "values": [{"measurement": "rate of CHK phosphorylation relative to hsp90", "setting": "CHK [5]", "value": "~ 23 fold"}, {"measurement": "phosphate incorporated by CHK", "setting": "CHK [1]", "value": "~ 0.9 pmol"}]}]}
